Measurements published in PubChem BioAssay AID2060887 (Molecular Pharmacology Branch, DTP, NCI, 2025).

System: 782815-120-R-J1-PDC complex spheroid viability
Experiment: Anticancer human tumor 782815-120-R-J1-PDC patient-derived colon adenocarcinoma cell line growth inhibition [RAS]
Details: for IC50: curve of first compound; for viability, T/C: stronger effect = lower value
Summary of the method: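 Tumour cells grown as complex spheroids with HUVEC endothelial cells and mesenchymal stem cells, treated with RAS pathway inhibitor combinations. Each agent spans half-log steps from near clinical Cmax, or 10 microM where Cmax is unknown.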

[1] = second compound 0.000949 µM, first compound 0.0316 µM
[2] = second compound 0.000949 µM, first compound 0.1 µM
[3] = second compound 0.000949 µM, first compound 0.316 µM
[4] = second compound 0.000949 µM, first compound 1 µM
[5] = second compound 0.000949 µM, first compound 3.16 µM
[6] = second compound 0.000949 µM, first compound 10 µM
[7] = second compound 0.003 µM, first compound 0.0316 µM
[8] = second compound 0.003 µM, first compound 0.1 µM
[9] = second compound 0.003 µM, first compound 0.316 µM
[10] = second compound 0.003 µM, first compound 1 µM
[11] = second compound 0.003 µM, first compound 3.16 µM
[12] = second compound 0.003 µM, first compound 10 µM
[13] = second compound 0.00949 µM, first compound 0.0316 µM
[14] = second compound 0.00949 µM, first compound 0.1 µM
[15] = second compound 0.00949 µM, first compound 0.316 µM
[16] = second compound 0.00949 µM, first compound 1 µM
[17] = second compound 0.00949 µM, first compound 3.16 µM
[18] = second compound 0.00949 µM, first compound 10 µM
[19] = second compound 0.03 µM, first compound 0.0316 µM
[20] = second compound 0.03 µM, first compound 0.1 µM
[21] = second compound 0.03 µM, first compound 0.316 µM
[22] = second compound 0.03 µM, first compound 1 µM
[23] = second compound 0.03 µM, first compound 3.16 µM
[24] = second compound 0.03 µM, first compound 10 µM
[25] = second compound 0.0949 µM, first compound 0.0316 µM
[26] = second compound 0.0949 µM, first compound 0.1 µM
[27] = second compound 0.0949 µM, first compound 0.316 µM
[28] = second compound 0.0949 µM, first compound 1 µM
[29] = second compound 0.0949 µM, first compound 3.16 µM
[30] = second compound 0.0949 µM, first compound 10 µM
[31] = second compound 0.3 µM, first compound 0.0316 µM
[32] = second compound 0.3 µM, first compound 0.1 µM
[33] = second compound 0.3 µM, first compound 0.316 µM
[34] = second compound 0.3 µM, first compound 1 µM
[35] = second compound 0.3 µM, first compound 3.16 µM
[36] = second compound 0.3 µM, first compound 10 µM
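Also: spheroids exposed to compounds for 7 days before reading.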
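For viability, T/C in this document: 100% = DMSO vehicle control viability.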

CCC(CC)c1cc(NC2CCC(N)C2)n2nccc2n1 (centres undefined) + CCn1c(-c2cc(N3CCN(C)CC3)cnc2C(C)OC)c2c3cc(ccc31)-c1csc(n1)CC(NC(=O)C1CC1C)C(=O)N1CCCC(N1)C(=O)OCC(C)(C)C2
IC50 (second compound 0.000949 µM): 2020 nM
IC50 (second compound 0.003 µM): 1060 nM
IC50 (second compound 0.00949 µM): < 31.6 nM
IC50 (second compound 0.03 µM): < 31.6 nM
IC50 (second compound 0.0949 µM): < 31.6 nM
IC50 (second compound 0.3 µM): < 31.6 nM
viability, T/C [1]: 69.7%
viability, T/C [2]: 75.9%
viability, T/C [3]: 74.2%
viability, T/C [4]: 84.7%
viability, T/C [5]: 33.4%
viability, T/C [6]: 1.4%
viability, T/C [7]: 56.2%
viability, T/C [8]: 53.3%
viability, T/C [9]: 57.4%
viability, T/C [10]: 52%
viability, T/C [11]: 12.1%
viability, T/C [12]: 1.08%
viability, T/C [13]: 32.4%
viability, T/C [14]: 37.1%
viability, T/C [15]: 33.6%
viability, T/C [16]: 33.7%
viability, T/C [17]: 6.65%
viability, T/C [18]: 1.2%
viability, T/C [19]: 21.2%
viability, T/C [20]: 20%
viability, T/C [21]: 19.9%
viability, T/C [22]: 20.9%
viability, T/C [23]: 3.02%
viability, T/C [24]: 1.53%
viability, T/C [25]: 18.6%
viability, T/C [26]: 19.7%
viability, T/C [27]: 16.1%
viability, T/C [28]: 16.4%
viability, T/C [29]: 2.74%
viability, T/C [30]: 1.31%
viability, T/C [31]: 16.6%
viability, T/C [32]: 15.1%
viability, T/C [33]: 16.5%
viability, T/C [34]: 15.2%
viability, T/C [35]: 1.69%
viability, T/C [36]: 1.33%

Cc1nc(N2CCC3(CC2)COC(C)C3N)c(CO)nc1Sc1ccnc(N)c1Cl (centres undefined) + CCn1c(-c2cc(N3CCN(C)CC3)cnc2C(C)OC)c2c3cc(ccc31)-c1csc(n1)CC(NC(=O)C1CC1C)C(=O)N1CCCC(N1)C(=O)OCC(C)(C)C2
IC50 (second compound 0.000949 µM): > 10000 nM
IC50 (second compound 0.003 µM): > 10000 nM
IC50 (second compound 0.00949 µM): < 31.6 nM
IC50 (second compound 0.03 µM): < 31.6 nM
IC50 (second compound 0.0949 µM): < 31.6 nM
IC50 (second compound 0.3 µM): < 31.6 nM
viability, T/C [1]: 73.5%
viability, T/C [2]: 79.3%
viability, T/C [3]: 74.7%
viability, T/C [4]: 73%
viability, T/C [5]: 69.4%
viability, T/C [6]: 69.9%
viability, T/C [7]: 58.5%
viability, T/C [8]: 54.6%
viability, T/C [9]: 56%
viability, T/C [10]: 49%
viability, T/C [11]: 58.4%
viability, T/C [12]: 49%
viability, T/C [13]: 29.1%
viability, T/C [14]: 28.2%
viability, T/C [15]: 24.1%
viability, T/C [16]: 32.1%
viability, T/C [17]: 30.3%
viability, T/C [18]: 28.3%
viability, T/C [19]: 17.8%
viability, T/C [20]: 19%
viability, T/C [21]: 18.6%
viability, T/C [22]: 18.5%
viability, T/C [23]: 22.9%
viability, T/C [24]: 19.3%
viability, T/C [25]: 15.9%
viability, T/C [26]: 17%
viability, T/C [27]: 14.5%
viability, T/C [28]: 15.5%
viability, T/C [29]: 17.3%
viability, T/C [30]: 15.4%
viability, T/C [31]: 14.3%
viability, T/C [32]: 13.8%
viability, T/C [33]: 15.9%
viability, T/C [34]: 16.4%
viability, T/C [35]: 21.3%
viability, T/C [36]: 18.6%
